Results from ChEMBL document CHEMBL5385875, “Tumor killing by a dietary curcumin mono-carbonyl analog that works as a selective ROS generator via TrxR inhibition” (Eur J Med Chem, 2023).
Activity calls are given as the source filed them. The calls are words filed in the database; no cut-off is given here.

Key:
NCI-H460 [1] = assay: Induction of ROS accumulation in human NCI-H460 cells assessed as reduction in GSH levels by measuring yellow green fluorescence incubated for 9 hrs by fluorescence microscope based analysis; format: functional, cell-based
NCI-H460 [2] = assay: Antitumor activity against human NCI-H460 cells xenografted in BALB/c nude mouse assessed as inhibition of tumor formation administered as IP dose and measured every two days for 27 days; format: functional; settings: dose 5-15 mg/kg, time 27.0 day
NCI-H460 [3] = assay: Cytotoxicity against human NCI-H460 cells assessed as reduction in cell viability incubated for 48 hrs by MTT assay; format: functional, cell-based; settings: NCI-H460, 48 h
[4] = Toxicity in BALB/c nude mouse assessed as effect on hair colour at 5 to 15 mg/kg, ip measured every two days for 27 days; format: organism-based; settings: in vivo, 648 h, dose 5-15 mg/kg, time 27 day
HT-1080 = assay: Cytotoxicity against human HT-1080 cells assessed as reduction in cell viability incubated for 48 hrs by MTT assay; format: functional, cell-based; settings: HT-1080, 48 h
NCI-H460 [5] = assay: Cytotoxicity against human NCI-H460 cells assessed as reduction in cell viability at 0.5 to 2 uM incubated for 48 hrs in presence of alpha tocopherol by MTT assay; format: functional, cell-based; settings: dose 0.5-2 µM
NCI-H460 [6] = assay: Cytotoxicity against human NCI-H460 cells assessed as reduction in cell viability at 0.5 to 1 uM measured after 48 hrs in presence of 3-methuladenine by MTT assay; format: functional, cell-based; settings: dose 0.5-1 µM
[7] = target: Thioredoxin reductase (Homo sapiens) (UniProt Q16881+Q9NNW7+Q86VQ6); assay: Inhibition of TrxR in human NCI-H460 cells measured after 6 hrs by DTNB reduction assay relative to control; format: cell-based; settings: dose 0.5-2 µM
[8] = Toxicity in BALB/c nude mouse assessed as effect on heart at 5 to 15 mg/kg, ip measured every two days for 27 days; format: organism-based; settings: in vivo, 648 h, dose 5-15 mg/kg, time 27 day
MRC5 [9] = assay: Induction of ferroptosis in human MRC5 cells assessed as increase in intracellular […] by measuring increase in red fluorescence intensity at 2 uM incubated for 40 hrs by C11-BODIPY staining based microscopy analysis; format: functional, cell-based
[10] = Toxicity in BALB/c nude mouse assessed as effect on liver at 5 to 15 mg/kg, ip measured every two days for 27 days; format: organism-based; settings: in vivo, 648 h, dose 5-15 mg/kg, time 27 day
NCI-H460 [11] = assay: Induction of intracellular ROS accumulation in human NCI-H460 cells at 0.5 to 2 uM by DCFH-DA dye based fluorescence assay; format: functional, cell-based; settings: dose 0.5-2 µM, time 1-12 hrs, TDE = time-dependent effect
NCI-H460 [12] = assay: Downregulation of Bcl-2 expression in human NCI-H460 cells at 1 to 2 uM measured after 48 hrs in presence of NAC by immunoblot analysis; format: functional, cell-based; settings: dose 1-2 µM
NCI-H460 [13] = assay: Cytotoxicity against human NCI-H460 cells assessed as reduction in cell viability at 0.5 to 2 uM incubated for 48 hrs in presence of N-acetylcysteine by MTT assay; format: functional, cell-based; settings: dose 0.5-2 µM
NCI-H460 [14] = assay: Induction of ferroptosis in human NCI-H460 cells assessed as reduction in GPX4 protein expression measured after 24 hrs by immunoblot analysis; format: functional, cell-based; settings: dose 1-2 µM
NCI-H460 [15] = assay: Antitumor activity against human NCI-H460 cells xenografted in BALB/c nude mouse assessed as induction of […] at 5 to 15 mg/kg by TUNEL staining based analysis; format: functional, organism-based; settings: dose 5-15 mg/kg
NCI-H460 [16] = assay: Induction of apoptosis in human NCI-H460 cells assessed as reduction of mitochondrial membrane potential incubated for 12 to 36 hrs by JC-1 staining based flow cytometry analysis; format: functional, cell-based; settings: dose 0.5-2 µM, time 12-36 hrs
NCI-H460 [17] = assay: Upregulation of caspase-3 activation in human NCI-H460 cells at 1 to 2 uM measured after 48 hrs in presence of NAC by immunoblot analysis; format: functional, cell-based; settings: dose 1-2 µM
NCI-H460 [18] = assay: Induction of ferroptosis in human NCI-H460 cells assessed as increase in MDA levels at 2 uM measured after 40 hrs in presence of Fer-1 by MDA assay; format: functional, cell-based
MRC5 [19] = assay: Induction of intracellular ROS accumulation in human MRC5 cells at upto 2 uM incubated for 6 hrs by DCFH-DA dye based fluorescence assay; format: functional, cell-based
[20] = Toxicity in BALB/c nude mouse assessed as animal death at 5 to 15 mg/kg, ip measured every two days for 27 days; format: organism-based; settings: in vivo, 648 h, dose 5-15 mg/kg, time 27 day
NCI-H460 [21] = assay: Cytotoxicity against human NCI-H460 cells assessed as reduction in cell viability at 0.5 to 2 uM incubated for 48 hrs in presence of BSO by MTT assay; format: functional, cell-based; settings: dose 0.5-2 µM
[22] = Selectivity index, ratio of IC50 for human MRC5 cells to IC50 for human NCI-H460 cells; format: toxicity; settings: MRC5 cells versus NCI-H460 cells, read-out: Ratio IC50
NCI-H460 [23] = assay: Upregulation of caspase-9 activation in human NCI-H460 cells at 1 to 2 uM measured after 48 hrs in presence of NAC by immunoblot analysis; format: functional, cell-based; settings: dose 1-2 µM
NCI-H460 [24] = assay: Induction of ROS accumulation in human NCI-H460 cells assessed as reduction in GSH levels by measuring yellow green fluorescence incubated for 9 hrs in presence of NAC by fluorescence microscope based analysis; format: functional, cell-based
NCI-H460 [25] = assay: Downregulation of Bcl-2 expression in human NCI-H460 cells at 1 to 2 uM measured after 48 hrs by immunoblot analysis; format: functional, cell-based; settings: dose 1-2 µM
NCI-H460 [26] = assay: Upregulation of Bax expression in human NCI-H460 cells at 1 to 2 uM measured after 48 hrs in presence of NAC by immunoblot analysis; format: functional, cell-based; settings: dose 1-2 µM
MRC5 [27] = assay: Induction of ROS accumulation in human MRC5 cells assessed as reduction in GSH levels by measuring yellow green fluorescence incubated for 9 hrs by fluorescence microscope based analysis; format: functional, cell-based
NCI-H460 [28] = assay: Induction of intracellular ROS accumulation in human NCI-H460 cells at 1 to 2 uM measured after 6 hrs in presence of VE by DCFH-DA dye based fluorescence assay; format: functional, cell-based; settings: dose 1-2 µM

SMILES: O=C1/C(=C/c2cccc(C(F)(F)F)c2)CNC/C1=C\c1cccc(C(F)(F)F)c1
- Activity (NCI-H460 [1]): Dose-Dependent Effect
- Activity (NCI-H460 [2]): Dose-Dependent Effect
- IC50 (NCI-H460 [3]): 440 nM
- Activity [4]: Non-Toxic
- IC50 (HT-1080): 930 nM
- Activity (NCI-H460 [5]): inactive
- Activity (NCI-H460 [6]): inactive
- inhibition [7]: Dose-Dependent Effect
- Activity [8]: Non-Toxic
- Activity (MRC5 [9]): inactive
- Activity [10]: Non-Toxic
- Activity (NCI-H460 [11]): Tde
- Activity (NCI-H460 [12]): inactive
- Activity (NCI-H460 [13]): inactive
- Activity (NCI-H460 [14]): Dose-Dependent Effect
- Activity (NCI-H460 [15]): Active
- Activity (NCI-H460 [16]): Dose-Dependent Effect
- Activity (NCI-H460 [17]): inactive
- Activity (NCI-H460 [18]): inactive
- Activity (MRC5 [19]): inactive
- Activity [20]: Non-Toxic
- Activity (NCI-H460 [21]): Active
- selectivity ratio [22]: 32
- Activity (NCI-H460 [23]): inactive
- Activity (NCI-H460 [24]): inactive
- Activity (NCI-H460 [25]): Active
- Activity (NCI-H460 [26]): inactive
- Activity (MRC5 [27]): inactive
- Activity (NCI-H460 [28]): inactive
